Measured values taken from patent publication US6107313A, “Dopamine receptor antagonists” (CombiChem, Inc., priority 1998, dated 2000).

Key:
[1] = target: T1, Dopamine, D4.4 (Human Recombinant) (Homo sapiens, UniProt P21917); experiment: dopamine D4.4 receptor binding assay, [3H]spiperone, human recombinant (CHO cells); settings: 1 h, N = 2, read-out: % Specific Binding; for activity at 10 µM: concentration 1.0E-5, average; for activity at 1 µM: concentration 1.0E-6, average; for activity at 0.1 µM: concentration 1.0E-7, average; for activity at 0.01 µM: concentration 1.0E-8, average; for activity at 0.001 µM: concentration 1.0E-9, average; for activity at 3 µM: concentration 3.0E-6, average; for activity at 0.3 µM: concentration 3.0E-7, average; for activity at 0.03 µM: concentration 3.0E-8, average; for activity at 0.003 µM: concentration 3.0E-9, average; for activity at 0.0003 µM: concentration 3.0E-10, average
T1 construct: expressed in transfected cells; host or cells: CHO cells (membranes)
T1 sequence (P21917 1-419): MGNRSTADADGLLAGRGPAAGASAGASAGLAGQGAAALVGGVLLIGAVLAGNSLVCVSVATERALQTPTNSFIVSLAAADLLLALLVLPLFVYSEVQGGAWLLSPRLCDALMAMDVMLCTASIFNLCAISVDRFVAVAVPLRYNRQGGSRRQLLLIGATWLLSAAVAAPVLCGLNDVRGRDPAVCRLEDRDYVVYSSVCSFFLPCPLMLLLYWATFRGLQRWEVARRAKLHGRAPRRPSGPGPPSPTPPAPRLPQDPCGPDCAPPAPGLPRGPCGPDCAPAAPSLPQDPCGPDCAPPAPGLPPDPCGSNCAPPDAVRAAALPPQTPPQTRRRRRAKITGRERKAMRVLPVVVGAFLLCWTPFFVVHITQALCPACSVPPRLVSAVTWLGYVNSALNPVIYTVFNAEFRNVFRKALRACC
Method: [The source words this procedure for another target and reports this target under the same test.] (§1) Following incubation, the membranes were rapidly filtered under vacuum through GF/B glass fiber filters (Packard). The filters were then washed several times with an ice-cold buffer using a Packard cell harvester.
(§2) Bound radioactivity was measured with a scintillation counter (Topcount, Packard) using a liquid scintillation cocktail (Microscint 0, Packard).
(§3) The compounds were tested in each assay at ten concentrations in duplicate to obtain competition curves.
(§4) In each experiment, the respective reference compound was simultaneously tested at eight concentrations in duplicate to obtain competition curves in order to validate this experiment.
(§5) The specific radioligand binding to the receptors is defined as the difference between total binding and nonspecific binding determined in the presence of an excess of unlabelled ligand (see section 2.1).
(§6) Results are expressed as a percent of control specific binding obtained in the presence of the test compounds.
(§7) These parameters were obtained by Hill equation curve fitting. The inhibition constants (Ki) were calculated from the Cheng Prusoff equation (Ki =IC50 /(1+L/KD), where L=concentration of radioligand in the assay, and KD=affinity of radioligand for the receptor).
(§8) Reactions were carried out in 50 mM TRIS-HCl (pH 7.4) containing 120 mM NaCl, 5 mM KCl, 5 mM MgCl2, 1mM EDTA for 60 minutes at 25 ° C. The reaction was terminated by rapid vacuum filtration onto glass fiber filters. Radioactivity trapped onto the filters was determined and compared to control values in order to ascertain any interactions of test compound(s) with the cloned dopamine D2 short binding site.

[2] = target: T2, Dopamine, D2s (Human Recombinant) (Homo sapiens, UniProt P14416); experiment: dopamine D2 receptor binding assay, [3H]spiperone, human recombinant (A9L cells); settings: 1 h, N = 2, read-out: % Specific Binding; for activity at 10 µM: concentration 1.0E-5, average; for activity at 1 µM: concentration 1.0E-6, average; for activity at 0.1 µM: concentration 1.0E-7, average; for activity at 0.01 µM: concentration 1.0E-8, average; for activity at 0.001 µM: concentration 1.0E-9, average; for activity at 3 µM: concentration 3.0E-6, average; for activity at 0.3 µM: concentration 3.0E-7, average; for activity at 0.03 µM: concentration 3.0E-8, average; for activity at 0.003 µM: concentration 3.0E-9, average; for activity at 0.0003 µM: concentration 3.0E-10, average
T2 construct: expressed in transfected cells; host or cells: A9L cells (membranes)
T2 sequence (P14416 1-414 isoform P14416-2): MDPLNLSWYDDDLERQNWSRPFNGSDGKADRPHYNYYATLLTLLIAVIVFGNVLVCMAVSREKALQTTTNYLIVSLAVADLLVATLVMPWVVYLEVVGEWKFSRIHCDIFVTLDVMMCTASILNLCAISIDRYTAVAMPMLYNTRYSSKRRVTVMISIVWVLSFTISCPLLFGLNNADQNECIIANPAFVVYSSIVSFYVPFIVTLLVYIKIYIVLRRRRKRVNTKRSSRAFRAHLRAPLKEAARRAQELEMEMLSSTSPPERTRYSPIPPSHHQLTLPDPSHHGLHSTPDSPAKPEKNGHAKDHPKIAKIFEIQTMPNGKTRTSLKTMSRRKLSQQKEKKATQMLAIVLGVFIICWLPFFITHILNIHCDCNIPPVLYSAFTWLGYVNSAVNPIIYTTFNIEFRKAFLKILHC
Method: as §1, §2, §3, §4, §5, §6, §7, §8

Compound | activity at 10 µM [1] | activity at 1 µM [1] | activity at 0.1 µM [1] | activity at 0.01 µM [1] | activity at 0.001 µM [1] | activity at 3 µM [1] | activity at 0.3 µM [1] | activity at 0.03 µM [1] | activity at 0.003 µM [1] | activity at 0.0003 µM [1] | activity at 10 µM [2] | activity at 1 µM [2] | activity at 0.1 µM [2] | activity at 0.01 µM [2] | activity at 0.001 µM [2] | activity at 3 µM [2] | activity at 0.3 µM [2] | activity at 0.03 µM [2] | activity at 0.003 µM [2] | activity at 0.0003 µM [2]
Cc1ccc(-c2noc(C3CCN(Cc4ccc(Cl)c(Cl)c4)CC3)n2)cc1 [Compound 5a, 4-(3-p-tolyl-1,2,4-oxadiazol-5-yl)-N-(3,4-dichlorobenzyl) piperidine] | 3.57% | 46.6% | 76.8% | 81% | 80.2% | 16.4% | 80.4% | 76.3% | 84.4% | 90.9% | 116% | 102% | 84.7% | 89.7% | 93.4% | 99.4% | 101% | 107% | 90.8% | 89.9%
Clc1ccc(CN2CCC(c3nc(-c4cccs4)no3)CC2)cc1 [Compound 5b, 4-[3-(2-thienyl)-1,2,4-oxadiazol-5-yl]-N-(4-chlorobenzyl) piperidine] | -3.8% | 0.44% | 22.8% | 53.6% | 76% | -0.19% | 4.28% | 29.7% | 73.1% | 82.3% | 24.6% | 91.3% | 112% | 103% | 104% | 61.9% | 116% | 104% | 97.3% | 116%
Clc1cccc(CN2CCC(c3nc(-c4cccs4)no3)CC2)c1 [Compound 5c, 4-[3-(2-thienyl)-1,2,4-oxadiazol-5-yl]-N-(3-chlorobenzyl) piperidine] | -7.32% | 1.74% | 29.2% | 81.9% | 107% | 4.6% | 4.79% | 60% | 95.2% | 109% | 33% | 101% | 87.7% | 88.3% | 94.8% | 102% | 94.6% | 84.9% | 108% | 98.5%
COc1ccc(CN2CCC(c3nc(-c4ccccc4C)no3)CC2)cc1 [Compound 5d, 4-(3-o-tolyl-1,2,4-oxadiazol-5-yl)-N-(4-methoxybenzyl) piperidine] | 2.15% | 6.58% | 47.5% | 92.1% | 102% | 12.2% | 22.9% | 77.1% | 96.4% | 101% | 39.5% | 106% | 105% | 100% | 104% | 113% | 117% | 99.8% | 105% | 85.2%
